The values below come from patent publication US20260274832A1, “COMPOUNDS AND THEIR USE IN TREATING CANCER” (ASTRAZENECA AB, priority 2023, published 2026).

Assay [1] concerns the target T1, AR (L702H) in LNCaP cells (Homo sapiens, UniProt P10275, L702H/T878A).
T1 construct: engineered to introduce the mutation L702H into the AR gene using CRISPR/Cas9; endogenous in cells; host or cells: LNCaP cells edited by CRISPR/Cas9 at the AR gene
The assay is described as follows: LNCaP Androgen Receptor L702H Imaging Assay (LNCaP cells engineered by CRISPR/Cas9). The format is cell-based. Conditions: LNCaP cells with AR L702H mutation, 24 h incubation; for DC50: concentration giving 50% of maximum degradation of AR (L702H) per curve fit; for Dmax: LNCaP, maximum degradation observed, normalized as % of positive control. Put shortly:
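CRISPR-engineered LNCaP cells carrying AR L702H were treated 24 h at 37 °C with a 12-point compound dose response (0.3% DMSO), then fixed and immunostained for AR with DRAQ5 nuclear counterstain. Nuclear AR was quantified by imaging, normalized to positive control; DC50 and Dmax came from Hill or bell-shaped fits.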

Assay [2] addresses T2, AR (AR-full length) in LNCaP cells (Homo sapiens, UniProt P10275, T878A).
T2 construct: the prostate cancer cell line LNCaP (expressing AR-full length); endogenous in cells; host or cells: LNCaP
Kind of assay: LNCaP Androgen Receptor Imaging Assay (immunofluorescence of endogenous nuclear AR). Type of assay: cell-based. As to conditions: 24 h incubation; for DC50: concentration giving 50% of maximum degradation of AR per curve fit, single experiment or average of two or more; for Dmax: LNCaP, maximum degradation observed, normalized as % of positive control (prior art AR PROTAC at 3 μM). In short, it runs like this: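 LNCaP cells (12,000/well) received a 12-point compound dose series (0.3% DMSO) for 24 h at 37° C., then were PFA-fixed and stained for AR (AR441) and nuclei (DRAQ5). Nuclear AR was quantified by imaging, normalized to a 3 μM AR PROTAC control; DC50 and Dmax came from Hill/bell curve fits.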

T1 sequence (P10275 whole entry L702H/T878A): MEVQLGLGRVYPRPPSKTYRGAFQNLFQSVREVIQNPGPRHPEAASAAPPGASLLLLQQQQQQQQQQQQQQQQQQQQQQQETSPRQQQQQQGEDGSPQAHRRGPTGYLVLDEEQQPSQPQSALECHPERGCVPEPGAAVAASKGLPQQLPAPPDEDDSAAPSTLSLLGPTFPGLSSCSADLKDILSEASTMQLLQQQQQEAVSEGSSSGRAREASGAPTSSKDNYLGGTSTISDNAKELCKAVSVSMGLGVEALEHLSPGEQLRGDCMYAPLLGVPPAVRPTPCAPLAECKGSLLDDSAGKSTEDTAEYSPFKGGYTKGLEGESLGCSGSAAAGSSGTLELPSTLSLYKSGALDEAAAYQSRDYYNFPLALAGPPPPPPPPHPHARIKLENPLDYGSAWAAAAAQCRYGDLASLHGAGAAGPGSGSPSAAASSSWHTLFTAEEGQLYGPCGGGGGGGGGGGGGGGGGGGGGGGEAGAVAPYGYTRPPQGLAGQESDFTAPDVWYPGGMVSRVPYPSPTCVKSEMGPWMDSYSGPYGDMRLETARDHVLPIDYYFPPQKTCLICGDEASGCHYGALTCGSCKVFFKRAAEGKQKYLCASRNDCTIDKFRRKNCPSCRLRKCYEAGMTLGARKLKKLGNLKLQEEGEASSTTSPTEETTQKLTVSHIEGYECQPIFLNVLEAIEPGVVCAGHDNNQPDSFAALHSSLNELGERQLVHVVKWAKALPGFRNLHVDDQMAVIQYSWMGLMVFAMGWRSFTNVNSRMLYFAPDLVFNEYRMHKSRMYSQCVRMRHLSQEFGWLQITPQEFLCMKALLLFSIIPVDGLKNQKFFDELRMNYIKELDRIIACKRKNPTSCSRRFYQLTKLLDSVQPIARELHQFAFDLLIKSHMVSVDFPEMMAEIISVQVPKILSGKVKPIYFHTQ
T1 sequence (Q96SW2 whole entry partner): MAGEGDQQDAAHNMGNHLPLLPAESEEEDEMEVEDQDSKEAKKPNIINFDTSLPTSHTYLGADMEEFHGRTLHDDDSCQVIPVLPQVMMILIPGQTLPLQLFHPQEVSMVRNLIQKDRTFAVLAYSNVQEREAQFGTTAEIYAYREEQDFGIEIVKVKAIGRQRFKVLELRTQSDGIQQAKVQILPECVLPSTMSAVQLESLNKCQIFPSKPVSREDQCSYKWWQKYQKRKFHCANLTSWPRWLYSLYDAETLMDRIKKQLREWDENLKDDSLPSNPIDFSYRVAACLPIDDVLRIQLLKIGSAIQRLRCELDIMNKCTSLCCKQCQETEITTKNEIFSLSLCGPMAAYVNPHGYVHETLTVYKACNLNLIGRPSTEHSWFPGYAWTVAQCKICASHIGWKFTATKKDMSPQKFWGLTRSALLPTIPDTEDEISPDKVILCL
T2 sequence (P10275 whole entry T878A): as the sequence (P10275 whole entry L702H/T878A) above, with H702L counted along it
T2 sequence (Q96SW2 whole entry partner): as the sequence (Q96SW2 whole entry partner) above

On to `COc1nc(N2CCN(CCCCOc3ccc(C4CCN(c5ccc(C)c6c(C#N)c[nH]c56)CC4)cc3)CC2)cc2c1C(=O)N(C1CCC(=O)NC1=O)C2` (stereo not drawn) [Example 31, 7-{4-[4-(4-{4-[2-(2,6-Dioxopiperidin-3-yl)-4-methoxy-3-oxo-2,3-dihydro-1H-pyrrolo[3,4-c]pyridin-6-yl]piperazin-1-yl}butoxy)phenyl]piperidin-1-yl}-4-methyl-1H-indole-3-carbonitrile], for which, in assay [1], half-maximal degradation (DC50) was put at 22 nM and the Dmax (usually the greatest extent of degradation seen) was found to be 88%. For the same compound, in assay [2], the DC50 (in general, the concentration at which degradation of the target reaches its halfway point) was found to be 8 nM and the Dmax was 94%.

For `COc1nc(N2CCN(CCCCOc3ccc(C4CCN(c5ccc(Cl)c6c(C#N)c[nH]c56)CC4)cc3)CC2)cc2c1C(=O)N(C1CCC(=O)NC1=O)C2` (stereo not drawn) [Example 32, 4-Chloro-7-{4-[4-(4-{4-[2-(2,6-dioxopiperidin-3-yl)-4-methoxy-3-oxo-2,3-dihydro-1H-pyrrolo[3,4-c]pyridin-6-yl]piperazin-1-yl}butoxy)phenyl]piperidin-1-yl}-1H-indole-3-carbonitrile], in assay [1], it took 10 nM to reach half-maximal degradation (DC50) and the Dmax is 100%. Besides, in assay [2], the DC50 was 5 nM and the Dmax was 99%.

`N#Cc1c[nH]c2c(N3CCC(c4ccc(OCCCCN5CCC(n6ccc7c(N8CCC(=O)NC8=O)cccc76)CC5)cc4)CC3)ccc(F)c12` [Example 33, 7-{4-[4-(4-{4-[4-(2,4-Dioxo-1,3-diazinan-1-yl)-1H-indol-1-yl]piperidin-1-yl}butoxy)phenyl]piperidin-1-yl}-4-fluoro-1H-indole-3-carbonitrile]: in assay [1], the DC50 came out at 33 nM and the Dmax was determined as 90%. For the same compound, in assay [2], half-maximal degradation (DC50) was put at 12 nM and the Dmax came out at 97%.

For the compound `COc1nc(N2CCN(CC3CCN(c4ccc(C5CCN(c6ccc(Cl)c7c(C#N)c[nH]c67)CC5)cc4)CC3)CC2)cc2c1C(=O)N(C1CCC(=O)NC1=O)C2` (stereo not drawn) [Example 34, 4-Chloro-7-(4-{4-[4-({4-[2-(2,6-dioxopiperidin-3-yl)-4-methoxy-3-oxo-2,3-dihydro-1H-pyrrolo[3,4-c]pyridin-6-yl]piperazin-1-yl}methyl)piperidin-1-yl]phenyl}piperidin-1-yl)-1H-indole-3-carbonitrile], in assay [1], half-maximal degradation (DC50) was put at 12 nM and the Dmax worked out at 102%. In addition, in assay [2], the DC50 was 7 nM and the Dmax was 98%.

On to `COc1nc(N2CCN(CC3CCN(c4ccc(C5CCN(c6ccc(F)c7c(C#N)c[nH]c67)CC5)cc4)CC3)CC2)cc2c1C(=O)N(C1CCC(=O)NC1=O)C2` (stereo not drawn) [Example 37, 7-(4-{4-[4-({4-[2-(2,6-Dioxopiperidin-3-yl)-4-methoxy-3-oxo-2,3-dihydro-1H-pyrrolo[3,4-c]pyridin-6-yl]piperazin-1-yl}methyl)piperidin-1-yl]phenyl}piperidin-1-yl)-4-fluoro-1H-indole-3-carbonitrile], for which the DC50 in assay [1] amounted to 11 nM; in assay [2] it was 15 nM. Further, the Dmax was 100% in assay [1] and 90% in assay [2].

On to `COc1nc(N2CCN(CC3CCN(c4ccc([C@@H]5CCCN(c6ccc(Cl)c7c(C#N)c[nH]c67)C5)cc4)CC3)CC2)cc2c1C(=O)N(C1CCC(=O)NC1=O)C2` (stereo partly drawn) [Example 38, 4-Chloro-7-[(3S)-3-{4-[4-({4-[2-(2,6-dioxopiperidin-3-yl)-4-methoxy-3-oxo-2,3-dihydro-1H-pyrrolo[3,4-c]pyridin-6-yl]piperazin-1-yl}methyl)piperidin-1-yl]phenyl}piperidin-1-yl]-1H-indole-3-carbonitrile], for which, in assay [1], the DC50 was 12 nM and the Dmax was found to be 95%. Moreover, in assay [2], the DC50 turned out to be 9 nM and the Dmax worked out at 97%.

For `COc1cc(N2CCN(CC3CCN(c4ccc(C5CCN(c6ccc(C)c7c(C#N)c[nH]c67)CC5)c(F)c4)CC3)CC2)cc2c1C(=O)N(C1CCC(=O)NC1=O)C2` (stereo not drawn) [Example 41, 7-(4-{4-[4-({4-[2-(2,6-Dioxopiperidin-3-yl)-7-methoxy-1-oxo-2,3-dihydro-1H-isoindol-5-yl]piperazin-1-yl}methyl)piperidin-1-yl]-2-fluorophenyl}piperidin-1-yl)-4-methyl-1H-indole-3-carbonitrile], the DC50 in assay [1] was determined as 29 nM; in assay [2] it was 17 nM. Further, the Dmax in assay [1] was 95%; in assay [2], 98%.

For the compound `Cc1ccc(N2CCC(c3ccc(N4CCC(CN5CCC(n6ccc7c(N8CCC(=O)NC8=O)cccc76)CC5)CC4)cc3F)CC2)c2[nH]cc(C#N)c12` [Example 42, 7-(4-{4-[4-({4-[4-(2,4-Dioxo-1,3-diazinan-1-yl)-1H-indol-1-yl]piperidin-1-yl}methyl)piperidin-1-yl]-2-fluorophenyl}piperidin-1-yl)-4-methyl-1H-indole-3-carbonitrile], the half-maximal degradation concentration (DC50) in assay [1] stood at 62 nM; in assay [2] it was 29 nM. In addition, the results for the Dmax in assay [1] and in assay [2] were 107% and 101%, respectively.

Consider `COc1cc(N2CCN(CC3CCN(c4ccc(C5CCN(c6ccc(C)c7c(C#N)c[nH]c67)CC5)c(F)c4)CC3)CC2)cc2c1C(=O)N(C1CCC(=O)NC1=O)C2=O` (stereo not drawn) [Example 43, 7-(4-{4-[4-({4-[2-(2,6-Dioxopiperidin-3-yl)-7-methoxy-1,3-dioxo-2,3-dihydro-1H-isoindol-5-yl]piperazin-1-yl}methyl)piperidin-1-yl]-2-fluorophenyl}piperidin-1-yl)-4-methyl-1H-indole-3-carbonitrile], for which, in assay [1], half-maximal degradation (DC50) was put at 160 nM and the Dmax stood at 97%. Also, in assay [2], the DC50 worked out at 73 nM and the Dmax is 94%.

With `N#Cc1c[nH]c2c(N3CCC(c4ccc(OCCCCN5CCN(c6ccc7c(c6)CN(C6CCC(=O)NC6=O)C7=O)CC5)cc4)CC3)ccc(F)c12` (stereo not drawn) [Example 44, 7-{4-[4-(4-{4-[2-(2,6-Dioxopiperidin-3-yl)-1-oxo-2,3-dihydro-1H-isoindol-5-yl]piperazin-1-yl}butoxy)phenyl]piperidin-1-yl}-4-fluoro-1H-indole-3-carbonitrile], the DC50 in assay [1] was 2 nM; in assay [2], 4 nM. In addition, the Dmax in assay [1] came out at 96%; in assay [2] it was 95%.

Turning to `N#Cc1c[nH]c2c(N3CCC(c4ccc(OCCCCN5CCN(c6ccc7c(c6)CN(C6CCC(=O)NC6=O)C7=O)CC5)cc4)CC3)ccc(Cl)c12` (stereo not drawn) [Example 45], the values for the DC50 in assay [1] and in assay [2] were 6 nM and 3 nM, respectively. Further, the Dmax in assay [1] was 95%; in assay [2], 96%.

For the compound `N#Cc1c[nH]c2c(N3CCC(c4ccc(OCCCCN5CCC(n6ccc7c(N8CCC(=O)NC8=O)cccc76)CC5)cc4)CC3)ccc(Cl)c12` [Example 46, 4-Chloro-7-{4-[4-(4-{4-[4-(2,4-dioxo-1,3-diazinan-1-yl)-1H-indol-1-yl]piperidin-1-yl}butoxy)phenyl]piperidin-1-yl}-1H-indole-3-carbonitrile], the DC50 is 12 nM in assay [1] and 4 nM in assay [2]. The Dmax in assay [1] turned out to be 98%; in assay [2], 101%.

Take `COc1nc(N2CCN(CC3CCN(c4ccc([C@H]5CCCN(c6ccc(Cl)c7c(C#N)c[nH]c67)C5)cc4)CC3)CC2)cc2c1C(=O)N(C1CCC(=O)NC1=O)C2` (stereo partly drawn) [Example 47, 4-Chloro-7-[(3R)-3-{4-[4-({4-[2-(2,6-dioxopiperidin-3-yl)-4-methoxy-3-oxo-2,3-dihydro-1H-pyrrolo[3,4-c]pyridin-6-yl]piperazin-1-yl}methyl)piperidin-1-yl]phenyl}piperidin-1-yl]-1H-indole-3-carbonitrile]: in assay [1], the half-maximal degradation concentration (DC50) turned out to be 7 nM and the Dmax came to 100%. In addition, in assay [2], it took 7 nM to reach half-maximal degradation (DC50) and the Dmax was 84%.

Turning to `COc1cc(N2CCN(CCCCOc3ccc(C4CCN(c5ccc(C)c6c(C#N)c[nH]c56)CC4)cc3)CC2)cc2c1C(=O)N(C1CCC(=O)NC1=O)C2=O` (stereo not drawn) [Example 48, 7-{4-[4-(4-{4-[2-(2,6-Dioxopiperidin-3-yl)-7-methoxy-1,3-dioxo-2,3-dihydro-1H-isoindol-5-yl]piperazin-1-yl}butoxy)phenyl]piperidin-1-yl}-4-methyl-1H-indole-3-carbonitrile], in assay [1], the DC50 amounted to 359 nM and the Dmax amounted to 99%. Besides, in assay [2], half-maximal degradation (DC50) was put at 57 nM and the Dmax was 97%.

With `COc1cc(N2CCN(CC3CCN(c4ccc(C5CCN(c6ccc(Cl)c7c(C#N)c[nH]c67)CC5)cc4)CC3)CC2)cc2c1C(=O)N(C1CCC(=O)NC1=O)C2=O` (stereo not drawn) [Example 49, 4-Chloro-7-(4-{4-[4-({4-[2-(2,6-dioxopiperidin-3-yl)-7-methoxy-1,3-dioxo-2,3-dihydro-1H-isoindol-5-yl]piperazin-1-yl}methyl)piperidin-1-yl]phenyl}piperidin-1-yl)-1H-indole-3-carbonitrile], in assay [1], it took 45 nM to reach half-maximal degradation (DC50) and the Dmax worked out at 97%. Also, in assay [2], half-maximal degradation (DC50) was put at 33 nM and the Dmax stood at 91%.
